According to patent publication US20250115578A1, “AROMATIC FUSED RING NAV1.8 INHIBITOR, AND USE THEREOF” (CHENGDU KANGHONG PHARMACEUTICAL CO., LTD., priority 2022, published 2025):
In brackets after ≈: the same amount, converted by molar mass.

Columns and labels:
[1] = Assay of kinetic solubility; type: physicochemical; details: aqueous buffer, kinetic from dmso stock, pH 3.5 phosphate buffer, 25° C.
[2] = test system: postoperative pain model in rats; assay: Efficacy test in postoperative pain model in rats (mechanical allodynia, PWT); type: in vivo, Sprague-Dawley male rats; details: single oral 30 mg/kg; for Inhibition of mechanical hyperalgesia induced by postoperative pain model: at 1 h, 2 h and 4 h after administration
Experimental: Sprague-Dawley male rats, purchased from Zhejiang Vital River Laboratory Animal Technology Co., LTD
Compounds of the example 10, 14, 16, 31 of the invention were weighted and prepared into solutions of 3 mg/mL using 5% DMSO (Anhui Senrise Technologies Co., Ltd)+30% Solutol HS15 (Beijing Ouhe Technology Co., LTD.)+65% water for injection, and administered at a volume of 10 mL/kg by gavage. The dosage was 30 mg/kg.
Animals were anesthetized with Zoletil 50+ Xylazine Hydrochloride (20 mg/kg+8 mg/kg, intraperitoneally injected). The surgical area on the plantar skin of the left hind paw was disinfected three times with iodophor and 70% ethanol, and the surgery was started after the skin was dry.
A longitudinal incision about 1 cm was made towards the toes starting from 0.5 cm away from the heel of the left hind paw. After the skin was incised, the flexor digitorum brevis was raised and longitudinal blunt injury was caused. After hemostasis by pressing, the wound was sutured. After surgery, animals were placed on an electric warm pad and 5 mL of physiological saline was injected subcutaneously to prevent dehydration. 24 h after modeling, all animals (including the normal control group) were tested for base mechanical allodynia (PWT). The modeling animals without mechanical hypersensitivity (PWT greater than 5 g) were excluded and […] were selected and randomly divided into 5 groups, with 9 animals in each group except 5 in the normal group (negative control group).
The animals were weighed and administered orally at a volume of 10 mL/kg. Except normal control animals, other animals were given a single dose of compounds, and mechanical allodynia was performed by test fibers on all groups of animals at 1 h, 2 h and 4 h after dosing. The rats were placed individually in a plexiglass box with a grid at the bottom to ensure that the paws of the rats could be tested. The rats would acclimate for 15 minutes before the test. After the acclimation was completed, the test fibers were used to test on the plantar center of the rat's left hind paw. Pressed the test fiber vertically against the skin and applied force to bend the fiber for 6 to 8 seconds, with 5 second intervals between each test. The rapid withdrawal of the animal's paws during the test was recorded as a pain response. The animal's paw withdrawal when the fibers left the animal's skin was also recorded as a pain response. If the animal moves or walks around, it's not recorded as a pain response, and the test should be repeated.
Mechanical hyperalgesia was expressed as the paw withdrawal threshold (PWT) in the rat behavioral test, which was calculated according to the following formula:
50% response threshold (g)=(10^(Xf+kδ)/10,000 • Xf=final test fiber value used in the test • k=table value (Chaplan et al. 1994, page 62) • δ=mean deviation
Data were collected with excel software and analyzed with Prism 7.0 (Graph pad software, Inc.) software by two-way ANOVA followed by Dunnett multiple comparison test.

Compound | solubility kinetic at 2 h [1] | Inhibition of mechanical hyperalgesia induced by postoperative pain model [2] | Efficacy compared with example compound 31 ([2]; at 1 h and 4 h after administration) | Efficacy compared with example compound 31 ([2]; after 1 h of administration)
NC(=O)c1cc(NC(=O)c2nc3ccccc3nc2N2CCCC(F)(F)CC2)ccc1F [Example 02, N-(3-carbamoyl-4-fluorophenyl)-3-(4,4-difluoroazepan-1-yl)quinoxaline-2-carboxamide] | 2.8 µM (≈ 1.24 µg/mL) | – | – | –
NC(=O)c1cc(NC(=O)c2nc3ccccc3nc2N2CCCC(F)(F)CC2)ccn1 [Example 05, N-(2-carbamoylpyridin-4-yl)-3-(4,4-difluoroazepan-1-yl)quinoxaline-2-carboxamide] | 0.39 µM (≈ 0.166 µg/mL) | – | – | –
NC(=O)c1cc(NC(=O)c2cc3ccccc3nc2N2CCCC(F)(F)CC2)ccn1 [Example 08, N-(2-carbamoylpyridin-4-yl)-2-(4,4-difluoroazepan-1-yl)quinoline-3-carboxamide] | 175 µM (≈ 74.5 µg/mL) | – | – | –
NC(=O)c1cc(NC(=O)c2cc3cc(F)c(F)cc3nc2N2CCCC(F)(F)CC2)ccn1 [Example 10, N-(2-carbamoylpyridin-4-yl)-2-(4,4-difluoroazepan-1-yl)-6,7-difluoroquinoline-3-carboxamide] | – | inhibited mechanical hyperalgesia | – | –
NS(=O)(=O)c1cc(NC(=O)c2cc3ccccc3nc2N2CCCC(F)(F)CC2)ccn1 [Example 14, 2-(4,4-difluoroazepan-1-yl)-N-(2-sulfamoylpyridine-4-yl) quinoline-3-carboxamide] | 271 µM (≈ 125 µg/mL) | inhibited mechanical hyperalgesia | significantly stronger than that of example compound 31 | –
NS(=O)(=O)c1cccc(NC(=O)c2cc3cc(F)c(F)cc3nc2N2CCCC(F)(F)CC2)c1 [Example 16, 2-(4,4-difluoroazepan-1-yl)-6,7-difluoro-N-(3-sulfamoylphenyl) quinoline-3-carboxamide] | – | inhibited mechanical hyperalgesia | – | significantly more effective than example compound 31
